Measured values reported in ChEMBL document CHEMBL3882725, “Indazole derivatives as JNK inhibitors and compositions and methods related thereto” (2002).

target: Mitogen-activated protein kinase 9 (Homo sapiens, UniProt P45984); test: Inhibition of His6-tagged JNK2 (unknown origin) assessed as reduction in c-Jun phosphorylation using GST-c-Jun (1 to 79 residues) and [gamma32P]ATP incubated for 1 hr by scintillation counting assay
Sequence (P45984 whole entry, the tested form may be a part): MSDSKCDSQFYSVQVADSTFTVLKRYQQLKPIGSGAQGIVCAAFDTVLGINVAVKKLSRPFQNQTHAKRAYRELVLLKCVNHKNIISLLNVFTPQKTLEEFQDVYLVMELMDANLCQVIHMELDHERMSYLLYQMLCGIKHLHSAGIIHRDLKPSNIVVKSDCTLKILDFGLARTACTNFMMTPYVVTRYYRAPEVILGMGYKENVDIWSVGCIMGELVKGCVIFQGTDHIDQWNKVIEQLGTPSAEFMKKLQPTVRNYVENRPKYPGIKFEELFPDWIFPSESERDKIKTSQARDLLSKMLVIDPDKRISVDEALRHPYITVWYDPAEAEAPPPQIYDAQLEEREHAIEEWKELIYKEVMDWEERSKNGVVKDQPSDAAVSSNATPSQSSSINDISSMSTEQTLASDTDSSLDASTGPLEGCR

SMILES | IC50
NC(=O)CCNC(=O)c1ccc2[nH]nc(-c3ccc(F)cc3)c2c1 | 1 to 10 µM
CC(Oc1ccccc1)C(=O)Nc1cccc(-c2n[nH]c3ccc(-c4nn[nH]n4)cc23)c1 (configuration not stated) | 0.5 to 10 µM
O=C(CCN1CCCCC1)Nc1cccc(-c2n[nH]c3ccc(-c4nn[nH]n4)cc23)c1 | 0.5 to 10 µM
CS(=O)(=O)Nc1cccc(-c2n[nH]c3ccc(-c4nnc[nH]4)cc23)c1 | 1 to 10 µM
O=C(Nc1cccc(-c2n[nH]c3ccc(-c4nn[nH]n4)cc23)c1)c1ccco1 | 0.5 to 10 µM
O=C(CN1CCOCC1)Nc1cccc(-c2n[nH]c3ccc(-c4nc[nH]n4)cc23)c1 | 0.5 to 10 µM
CN(C)Cc1n[nH]c(-c2ccc3[nH]nc(-c4cccc(C(=O)Nc5ccc(F)cc5)c4)c3c2)n1 | 0.5 to 10 µM
COc1ccc(-c2n[nH]c3ccc(-c4ncn[nH]4)cc23)cc1 | 1 to 10 µM
COc1ccccc1C(=O)Nc1ccc2[nH]nc(-c3ccc(F)cc3)c2c1 | ≤ 10 µM
Oc1cccc(-c2n[nH]c3ccc(-c4nnn[nH]4)cc23)c1 | 0.5 to 10 µM
c1nc(-c2ccc3[nH]nc(-c4ccc5c(c4)OCCO5)c3c2)n[nH]1 | 1 to 10 µM
CC(=O)N1CCN(CCOc2cccc(-c3n[nH]c4ccc(-c5ncn[nH]5)cc34)c2)CC1 | 1 to 10 µM
Cn1cncc1CCNC(=O)c1ccc2[nH]nc(-c3ccc(F)cc3)c2c1 | 1 to 10 µM
NC(=O)c1ccc2[nH]nc(-c3cc4ccccc4s3)c2c1 | 1 to 10 µM
c1cc(OCCN2CCCCC2)cc(-c2n[nH]c3ccc(-c4nc[nH]n4)cc23)c1 [CC-401] | 1 to 10 µM
C[C@@H](NC(=O)c1cccc(-c2n[nH]c3ccc(-c4ncn[nH]4)cc23)c1)c1ccccc1 | 0.5 to 10 µM
O=[N+]([O-])c1cccc(/C=C/c2ccc3[nH]nc(-c4ccc(F)cc4)c3c2)c1 | ≤ 10 µM
CCCc1n[nH]c(-c2ccc3[nH]nc(-c4ccc(F)cc4)c3c2)n1 | 1 to 10 µM
CN(C)CCCOc1cccc(-c2n[nH]c3ccc(-c4nnn[nH]4)cc23)c1 | 0.5 to 10 µM
O=C(O)c1ccc(CCc2ccc3[nH]nc(-c4ccc(F)cc4)c3c2)cc1 | ≤ 10 µM
c1cc(-c2n[nH]c3ccc(-c4nnn[nH]4)cc23)cs1 | 0.5 to 10 µM
Nc1ccc(C(=O)Nc2ccc3[nH]nc(-c4ccccc4)c3c2)cc1 | 1 to 10 µM
OC(Cc1ccccc1)c1ccc2[nH]nc(-c3ccc(F)cc3)c2c1 (configuration not stated) | 1 to 10 µM
O=C(NCc1cccnc1)c1cccc(-c2n[nH]c3ccc(-c4ncn[nH]4)cc23)c1 | 0.5 to 10 µM
Fc1ccc(-c2n[nH]c3ccc(-c4n[nH]c(CN5CCCCC5)n4)cc23)cc1 | 1 to 10 µM
CC(C)(C)OC(=O)CNC(=O)c1ccc2[nH]nc(-c3ccc(F)cc3)c2c1 | 1 to 10 µM

SMILES | IC50
c1cc(OCCN2CCOCC2)cc(-c2n[nH]c3ccc(-c4ncn[nH]4)cc23)c1 | 1 to 10 µM
O=c1[nH]c(-c2ccc3[nH]nc(-c4ccc(F)cc4)c3c2)no1 | 0.5 to 10 µM
O=C(O)CCc1nnc(-c2ccc3[nH]nc(-c4ccc(F)cc4)c3c2)[nH]1 | 1 to 10 µM
O=C(Nc1cccc(-c2n[nH]c3ccc(-c4nc[nH]n4)cc23)c1)c1ccc(Cl)cc1Cl | 1 to 10 µM
C[S+]([O-])c1ccc(-c2n[nH]c3ccc(-c4ncn[nH]4)cc23)cc1 (configuration not stated) | 1 to 10 µM
Nc1ccc(-c2nnc(-c3ccc4[nH]nc(-c5ccc(F)cc5)c4c3)[nH]2)cc1 | 1 to 10 µM
NC(=O)c1ccc2[nH]nc(-c3cccc(NC(=O)Cc4ccccc4)c3)c2c1 | 0.5 to 10 µM
O=C(Nc1ccc(F)cc1)Nc1ccc2[nH]nc(-c3ccc(F)cc3)c2c1 | ≤ 10 µM
CC(C)(C)CC(=O)Nc1cccc(-c2n[nH]c3ccc(-c4nc[nH]n4)cc23)c1 | 0.5 to 10 µM
O=C(Nc1cccnc1)c1ccc2[nH]nc(-c3ccc(F)cc3)c2c1 | 1 to 10 µM
Nc1ccc2[nH]nc(-c3ccc(F)cc3)c2c1 | ≤ 10 µM
O=C(O)C(=O)Nc1cccc(-c2n[nH]c3ccc(-c4nc[nH]n4)cc23)c1 | 0.5 to 10 µM
O=C(Nc1cccc(-c2n[nH]c3ccc(-c4nc[nH]n4)cc23)c1)c1cccnc1 | 0.5 to 10 µM
O=C(NCCc1ccccc1)c1cccc(-c2n[nH]c3ccc(-c4nc[nH]n4)cc23)c1 | 0.5 to 10 µM
COc1ccc(CC(=O)Nc2cccc(-c3n[nH]c4ccc(C(N)=O)cc34)c2)cc1 | 0.5 to 10 µM
NC(=O)c1ccc2[nH]nc(-c3cccc(OCCN4CCCCC4)c3)c2c1 | 1 to 10 µM
O=C(NCc1ccccc1)c1cccc(-c2n[nH]c3ccc(-c4ncn[nH]4)cc23)c1 | 0.5 to 10 µM
O=C(CC1CCCCC1)Nc1cccc(-c2n[nH]c3ccc(-c4nc[nH]n4)cc23)c1 | 0.5 to 10 µM
O=C(N[C@@H]1c2ccccc2C[C@@H]1O)c1cccc(-c2n[nH]c3ccc(-c4ncn[nH]4)cc23)c1 | 1 to 10 µM
O=C(N[C@H]1c2ccccc2C[C@H]1O)c1cccc(-c2n[nH]c3ccc(-c4ncn[nH]4)cc23)c1 | 1 to 10 µM
COCC(=O)Nc1cccc(-c2n[nH]c3ccc(-c4nnc[nH]4)cc23)c1 | 0.5 to 10 µM
C[C@H](NC(=O)c1cccc(-c2n[nH]c3ccc(-c4ncn[nH]4)cc23)c1)c1ccccc1 | 1 to 10 µM
CN(C)CCc1nc(-c2ccc3[nH]nc(-c4ccc(F)cc4)c3c2)n[nH]1 | 1 to 10 µM
COCCNC(=O)c1ccc2[nH]nc(-c3cc4ccccc4o3)c2c1 | 1 to 10 µM
c1ccc2cc(-c3n[nH]c4ccc(-c5ncn[nH]5)cc34)ccc2c1 | 1 to 10 µM
CC(=O)c1ccc2[nH]nc(-c3ccc(F)cc3)c2c1 | 1 to 10 µM

SMILES | IC50
COc1ccc(-c2n[nH]c3ccc([N+](=O)[O-])cc23)cc1 | ≤ 10 µM
NC(=O)c1ccc2[nH]nc(-c3cccc(NC(=O)c4cccc(O)c4)c3)c2c1 | 1 to 10 µM
O=C(Nc1cccc(-c2n[nH]c3ccc(-c4nc[nH]n4)cc23)c1)C(=O)c1ccccc1 | 1 to 10 µM
C(=C\c1n[nH]c2ccc(-c3nc[nH]n3)cc12)/c1ccccc1 | 1 to 10 µM
O=C(Nc1ccc2[nH]nc(-c3ccc(F)cc3)c2c1)c1ccccc1O | 1 to 10 µM
COCCOc1cccc(-c2n[nH]c3ccc(-c4nc[nH]n4)cc23)c1 | 1 to 10 µM
COc1ccc(-c2n[nH]c3ccc(NC(=O)c4ccc(C(=O)O)cc4)cc23)cc1 | 1 to 10 µM
CC(=O)O[C@@H](C)C(=O)Nc1cccc(-c2n[nH]c3ccc(C(N)=O)cc23)c1 | 0.5 to 10 µM
CC(C)(C)CNC(=O)c1cccc(-c2n[nH]c3ccc(-c4ncn[nH]4)cc23)c1 | 1 to 10 µM
c1nc(-c2ccc3[nH]nc(-c4ccc5c(c4)OCO5)c3c2)n[nH]1 | 1 to 10 µM
CNC(=O)c1ccc2[nH]nc(-c3cc4ccccc4o3)c2c1 | 1 to 10 µM
O=C(O)c1ccc(CNC(=O)c2ccc3[nH]nc(-c4ccc(F)cc4)c3c2)cc1 | 1 to 10 µM
O=C(O)/C=C/c1ccc2[nH]nc(-c3ccc(F)cc3)c2c1 | 1 to 10 µM
O=C(O)c1ccc2[nH]nc(-c3ccc(F)cc3)c2c1 | 1 to 10 µM
CN(C)CC(=O)Nc1cccc(-c2n[nH]c3ccc(C(N)=O)cc23)c1 | 1 to 10 µM
CC(C)c1cccc(-c2n[nH]c3ccc(-c4nc[nH]n4)cc23)c1 | 1 to 10 µM
Nc1ccc2[nH]nc(-c3ccccc3)c2c1 | ≤ 10 µM
Nc1cccc(NC(=O)c2ccc3[nH]nc(-c4ccc(F)cc4)c3c2)c1 | 1 to 10 µM
O=C(Nc1ccccn1)c1ccc2[nH]nc(-c3ccc(F)cc3)c2c1 | ≤ 10 µM
COc1ccc2cc(-c3n[nH]c4ccc(-c5nc[nH]n5)cc34)ccc2c1 | 1 to 10 µM
Fc1ccc(-c2n[nH]c3ccc(NCc4ccncc4)cc23)cc1 | 1 to 10 µM
O=C(Nc1ccc2[nH]nc(-c3ccc(F)cc3)c2c1)c1cccnc1 | 1 to 10 µM
O=C(NO)c1ccc2[nH]nc(-c3ccc(F)cc3)c2c1 | 1 to 10 µM
O=C(O)CCCCNC(=O)c1ccc2[nH]nc(-c3ccc(F)cc3)c2c1 | 1 to 10 µM
O=C(NCc1ccc(F)cc1)c1cccc(-c2n[nH]c3ccc(-c4ncn[nH]4)cc23)c1 | 0.5 to 10 µM
Fc1ccc(-c2n[nH]c3ccc(/C=C/c4ccncc4)cc23)cc1 | ≤ 10 µM

SMILES | IC50
NC(=O)c1ccc2[nH]nc(-c3cccc(NC(=O)Cc4ccc(Cl)cc4)c3)c2c1 | 1 to 10 µM
Fc1ccc(-c2n[nH]c3ccc(-c4nc(-c5ccncc5)n[nH]4)cc23)cc1 | 1 to 10 µM
NC(=O)c1ccc2[nH]nc(-c3cccc(NC(=O)Cc4ccccn4)c3)c2c1 | 1 to 10 µM
O=C(NCc1ccncc1)c1ccc2[nH]nc(-c3ccc(F)cc3)c2c1 | 1 to 10 µM
COc1ccc(-c2n[nH]c3ccc(-c4n[nH]c(CN(C)C)n4)cc23)cc1 | 0.5 to 10 µM
NCCNC(=O)c1ccc2[nH]nc(-c3ccc(F)cc3)c2c1 | ≤ 10 µM
CC(C)(C)NC(=O)c1cccc(-c2n[nH]c3ccc(-c4ncn[nH]4)cc23)c1 | 0.5 to 10 µM
O=C(Nc1ccc(-c2n[nH]c3ccc(-c4nn[nH]n4)cc23)cc1)c1cccnc1 | 0.5 to 10 µM
CC(=O)NCCOc1cccc(-c2n[nH]c3ccc(-c4ncn[nH]4)cc23)c1 | 1 to 10 µM
Clc1ccc(-c2n[nH]c3ccc(-c4nnn[nH]4)cc23)cc1 | 0.5 to 10 µM
O=C(Nc1ccc2[nH]nc(-c3ccc(F)cc3)c2c1)c1ccccn1 | 1 to 10 µM
O=C(Nc1cccc(-c2n[nH]c3ccc(-c4nc[nH]n4)cc23)c1)c1ccc(Cl)nc1 | 1 to 10 µM
O=C(Nc1ccccc1)c1cccc(-c2n[nH]c3ccc(-c4n[nH]c(CN5CCCC5)n4)cc23)c1 | 0.5 to 10 µM
COc1ccc(-c2n[nH]c3ccc(-c4nnn[nH]4)cc23)cc1 | 0.5 to 10 µM
CN(C)Cc1n[nH]c(-c2ccc3[nH]nc(-c4cccc(C(=O)NC5CC5)c4)c3c2)n1 | 0.5 to 10 µM
O=C(NCCN1CCOCC1)c1cccc(-c2n[nH]c3ccc(-c4nc[nH]n4)cc23)c1 | 0.5 to 10 µM
Fc1ccc(-c2n[nH]c3ccc(/C=C/c4ccccn4)cc23)cc1 | ≤ 10 µM
CC(=O)O[C@@H](C)C(=O)Nc1cccc(-c2n[nH]c3ccc(-c4nn[nH]n4)cc23)c1 | 0.5 to 10 µM
O=C(Nc1cccc(-c2n[nH]c3ccc(-c4nc[nH]n4)cc23)c1)c1cc2ccccc2s1 | 1 to 10 µM
O=[N+]([O-])c1ccc2[nH]nc(-c3ccoc3)c2c1 | ≤ 10 µM
Fc1ccc(-c2n[nH]c3ccc(-c4nc(-c5ccco5)n[nH]4)cc23)cc1 | 1 to 10 µM
Fc1ccc(-c2n[nH]c3ccc(-c4n[nH]c(C5CCCN5)n4)cc23)cc1 (configuration not stated) | 0.5 to 10 µM
O=C(Nc1ccccc1)c1cccc(-c2n[nH]c3ccc(-c4nc[nH]n4)cc23)c1 | 0.5 to 10 µM
O=C(Nc1ccc2[nH]nc(-c3ccccc3)c2c1)c1ccccc1 | 1 to 10 µM
